Source: patent US5854280A, “Antifungal sordaridin derivatives” (Glaxo Wellcome S.A., priority 1994, dated 1998)
Converted amounts (≈) assume the structure as drawn.

Experiments:
Test in all cases: in vitro antifungal MIC, two-fold serial dilution
[1] = system: C. psuedotropicalis 2371E; assay type: cell-based, Candida pseudotropicalis
Procedure: (§1) The in vitro evaluation of the anti-fungal activity of compounds of the invention was performed on liquid or solid medium by the anti-fungal two-fold serial dilution technique of determining the minimum inhibitory concentration (MIC) of anti-fungal agent that inhibited development of growth after 24 to 48 hours of incubation at 37° C. In practice, a series of agar plates or broth microdilution panels containing two-fold dilutions of anti-fungal agent tested were inoculated with a standard culture of a clinically relevant pathogen, for example, Candida albicans. The agar plates or broth microdulution panels were then examined for the presence or absence of growth of the fungus and the appropriate MIC values were noted.
(§2) Compounds of formula (I) have been tested for anti fungal activity in a standard in vitro screen and the minimum inhibiting concentration (MIC; μg/ml) determined for each compound against a variety of clinically relevant pathogens.

C. aibicans 2402E = assay type: cell-based, Candida albicans
Procedure: as §1, §2

C. albicans 2005E = assay type: cell-based, Candida albicans
Procedure: as §1, §2

C. albicans 1208E = assay type: cell-based, Candida albicans
Procedure: as §1, §2

C. albicans 4711 = assay type: cell-based, Candida albicans
Procedure: as §1, §2

C. glabrata 2375E = assay type: cell-based, Candida glabrata
Procedure: as §1, §2

C. glabrata 2376E = assay type: cell-based, Candida glabrata
Procedure: as §1, §2

C. tropicalis 2808E = assay type: cell-based, Candida tropicalis
Procedure: as §1, §2

C. neoformans 2867E = assay type: cell-based, Cryptococcus neoformans
Procedure: as §1, §2

SMILES | MIC (minimum inhibiting concentration) [1] [µg/mL] | MIC (minimum inhibiting concentration) (C. aibicans 2402E) [µg/mL] | MIC (minimum inhibiting concentration) (C. albicans 2005E) [µg/mL] | MIC (minimum inhibiting concentration) (C. albicans 1208E) [µg/mL] | MIC (minimum inhibiting concentration) (C. albicans 4711) [µg/mL] | MIC (minimum inhibiting concentration) (C. glabrata 2375E) [µg/mL] | MIC (minimum inhibiting concentration) (C. glabrata 2376E) [µg/mL] | MIC (minimum inhibiting concentration) (C. tropicalis 2808E) [µg/mL] | MIC (minimum inhibiting concentration) (C. neoformans 2867E) [µg/mL]
CC(C)C1=CC2CC3(C=O)C4CCC(C)C4CC2(COC2OC(C)C4OC(C)(C)OC4C2O)C13C(=O)O [Example 1, [1R-(1α,3aβ,4β,4aβ,7β,7aα,8aβ)]8a-[(6-Deoxy-3,4-O-isopropylidene-β-D-altropyranosyloxy)methyl]-4-formyl-4,4a,5,6,7,7a,8,8a-octahydro-7-methyl-3-(1-methylethyl)-1,4-methano-s-indacene-3a(1H)-carboxylic acid] | 0.060 (≈ 0.116 µM) | 0.500 (≈ 0.964 µM) | 0.120 (≈ 0.231 µM) | 0.500 (≈ 0.964 µM) | 0.280 (≈ 0.54 µM) | 31.00 (≈ 59.8 µM) | 31.00 (≈ 59.8 µM) | 1.000 (≈ 1.93 µM) | > 125
CC(C)C1=CC2CC3(C=O)C4CCC(C)C4CC2(COC2CC4OC(C)(C)OC4C(C)O2)C13C(=O)O [Example 6, [1R-(1α,3aβ,4β,4aβ,7β,7aα,8aβ)]8a-[(2,6-Dideoxy-3,4-O-isopropylidene-β-D-allopyranosyloxy)methyl]-4-formyl-4,4a,5,6,7,7a,8,8a-octahydro-7-methyl-3-(1-methylethyl)-4-methano-s-indacene-3a(1H)-carboxylic acid] | 0.004 (≈ 0.00796 µM) | 0.008 (≈ 0.0159 µM) | 0.001 (≈ 0.00199 µM) | 0.008 (≈ 0.0159 µM) | 0.004 (≈ 0.00796 µM) | 31.00 (≈ 61.7 µM) | 31.00 (≈ 61.7 µM) | 0.120 (≈ 0.239 µM) | 8.00 (≈ 15.9 µM)
CC(C)C1=CC2CC3(C=O)C4CCC(C)C4CC2(COC2CC4OCOC4C(C)O2)C13C(=O)[O-].[Na+] (stereo not drawn) [Example 13] | 0.008 | 0.015 | 0.008 | 0.015 | 0.015 | 8.00 | 8.00 | 0.120 | 0.500
CC(C)C1=CC2CC3(C=O)C4CCC(C)C4CC2(COC2CC4OCC(C)C4C(C)O2)C13C(=O)O [Example 16, [1R-(1α,3aβ,4β,4aβ,7β,7aα,8aβ)]8a-[[1S,4S,6R,8R]-2,7-Dioxa-4,6-dimethyl-cis-bicyclo[3.4.0]-non-8-yl-oxy-methyl]-4-formyl-4,4a,5,6,7,7a,8,8a-octahydro-7-methyl-3-(1-methylethyl)-1,4-methano-s-indacene-3a(1H)-carboxylic acid] | < 0.001 | 0.001 (≈ 0.00205 µM) | 0.001 (≈ 0.00205 µM) | 0.001 (≈ 0.00205 µM) | 0.001 (≈ 0.00205 µM) | 8.00 (≈ 16.4 µM) | 8.00 (≈ 16.4 µM) | 0.008 (≈ 0.0164 µM) | 1.00 (≈ 2.05 µM)
COC1C(C)OC(OCC23CC4C(C)CCC4C4(C=O)CC2C=C(C(C)C)C43C(=O)O)C2SC12 [Example 51, [1R-(1α,3aβ,4β,4aβ,7β,7aα,8aβ)]8a-[(2,3-Epithio-4-O-methyl-2,3,6-trideoxy-β-D-mannopyranosyloxy)methyl]-4-formyl-4,4a,5,6,7,7a,8,8a-octahydro-7-methyl-3-(1-methylethyl)-1,4-methano-s-indacene-3a(1H)-carboxylic acid] | 0.008 (≈ 0.0163 µM) | 0.120 (≈ 0.245 µM) | 0.030 (≈ 0.0611 µM) | 0.120 (≈ 0.245 µM) | 0.120 (≈ 0.245 µM) | 16.00 (≈ 32.6 µM) | 16.00 (≈ 32.6 µM) | 0.500 (≈ 1.02 µM) | ≤ 125

Second part, the compound after the results:

MIC (minimum inhibiting concentration) [1] [µg/mL] | MIC (minimum inhibiting concentration) (C. aibicans 2402E) [µg/mL] | MIC (minimum inhibiting concentration) (C. albicans 2005E) [µg/mL] | MIC (minimum inhibiting concentration) (C. albicans 1208E) [µg/mL] | MIC (minimum inhibiting concentration) (C. albicans 4711) [µg/mL] | MIC (minimum inhibiting concentration) (C. glabrata 2375E) [µg/mL] | MIC (minimum inhibiting concentration) (C. glabrata 2376E) [µg/mL] | MIC (minimum inhibiting concentration) (C. tropicalis 2808E) [µg/mL] | MIC (minimum inhibiting concentration) (C. neoformans 2867E) [µg/mL] | SMILES
0.004 | ≤ 0.001 | ≤ 0.001 | ≤ 0.001 | ≤ 0.001 | 0.500 | 0.500 | 0.008 | 0.250 | CC(C)C1=CC2CC3(C=O)C4CCC(C)C4CC2(COC2CC4C(C)COC4C(C)O2)C13C(=O)[O-].[Na+] [Example 20, [1R-(1α,3aβ,4β,4aβ,7β,7aα,8aβ)]8a-[[1S,4R,7R,9R]-2,8-Dioxa-4,9-dimethyl-cis-bicyclo[3.4.0]-7-yl-oxy-methyl]-4-formyl-4,4a,5,6,7,7a,8,8a-octahydro-7-methyl-3-(1-methylethyl)-1,4-methano-s-indacene-3a(1H)-carboxylic acid, sodium salt]
≤ 0.001 | 0.001 | 0.001 | 0.001 | 0.001 | 1.000 | 1.000 | 0.150 | ≤ 0.250 | C=C1COC2C(C)OC(OCC34CC5C(C)CCC5C5(C=O)CC3C=C(C(C)C)C54C(=O)[O-])CC12.[Na+] [Example 34, [1R-(1α,3aβ,4β,4aβ,7β,7aα,8aβ)]8a-[[1S,7R,9R]-2,8-Dioxa-9-methyl-4-methylene-cis-bicyclo[3.4.0]-non-7-yl-oxy-methyl]-4-formyl-4,4a, 5,6,7,7a,8,8a-octahydro-7-methyl-3-(1-methylethyl)-1,4-methano-s-indacene-3a(1H)-carboxylic acid, sodium salt]
0.060 (≈ 0.123 µM) | 0.060 (≈ 0.123 µM) | 0.001 (≈ 0.00206 µM) | 0.060 (≈ 0.123 µM) | 0.030 (≈ 0.0617 µM) | 4.00 (≈ 8.22 µM) | 6.00 (≈ 12.3 µM) | 0.500 (≈ 1.03 µM) | ≤ 0.250 | CC(C)C1=CC2CC3(C=O)C4CCC(C)C4CC2(COC2CC4C(=O)COC4C(C)O2)C13C(=O)O [Example 37, [1R-(1α,3aβ,4β,4aβ,7β,7aα,8aβ)]8a-[[1S,7R,9R]-2,8-Dioxa-9-methyl-4-oxo-cis-bicyclo[3.4.0]-non-7-yl-oxy-methyl]-4-formyl4,4a,5,6,7,7a,8,8a-octahydro-7-methyl-3-(1-methyl-ethyl)-1,4-methano-s-indacene-3a(1H)-carboxylic acid]
< 0.001 | 0.001 (≈ 0.00212 µM) | 0.001 (≈ 0.00212 µM) | 0.001 (≈ 0.00212 µM) | 0.001 (≈ 0.00212 µM) | 4.00 (≈ 8.5 µM) | 4.00 (≈ 8.5 µM) | 0.500 (≈ 1.06 µM) | 2.00 (≈ 4.25 µM) | CC(C)C1=CC2CC3(C=O)C4CCC(C)C4CC2(COC2CC4=CCOC4C(C)O2)C13C(=O)O [Example 43, [1R-(1α,3aβ,4β,4aβ,7β,7aα,8aβ)]8a-[(1S,7R,9R)-2,8-Dioxa-9-methyl-bicyclo[3,4,0]-non-4-ene-7-yl-oxymethyl]-4-formyl-4,4a,5,6,7,7a,8,8a-octahydro-7-methyl-3-(1-methylethyl)-1,4-methano-s-indacene-3a(1H)-carboxylic acid]
0.001 (≈ 0.00199 µM) | 0.008 (≈ 0.0159 µM) | 0.001 (≈ 0.00199 µM) | 0.004 (≈ 0.00796 µM) | 0.004 (≈ 0.00796 µM) | 8.00 (≈ 15.9 µM) | 8.00 (≈ 15.9 µM) | 0.030 (≈ 0.0597 µM) | 1.00 (≈ 1.99 µM) | CCCOC1C(C)OC(OCC23CC4C(C)CCC4C4(C=O)CC2C=C(C(C)C)C43C(=O)O)C2OC12 [Example 52, [1R-(1α,3aβ,4β,4aβ,7β,7aα,8aβ)]8a-[(2,3-Anhydro-6-deoxy-4-O-propyl-β-D-mannopyranosyloxy)methyl]-4-formyl-4,4a,5,6,7,7a,8,8a-octahydro-7-methyl-3-(1-methylethyl)-1,4-methano-s-indacene-3a(1H)-carboxylic acid]
